In patent EP0133795B1 (THE McLEAN HOSPITAL CORPORATION, priority 1983, dated 1985):
Entries after “also recorded” stand apart in the source; their conditions may differ.

Assays:
[1] = system: general motor activity of mice; experiment: General locomotor activity of mice (Stoelting electronic activity monitor); assay type: in vivo, Balb/c mice; conditions: for In Vivo Inhibition of General Motor Activity: graded 0-5; for effect on motor activity at low doses: 10 mg/kg (19 µmol/kg) or below, 10 mg/kg
Experimental: The effect of intraperitoneal (i.p.) injections of test compounds on the general motor activity of mice during a 60-min period was determined in a Stoelting electronic activity monitor. Dose-response curves were obtained from which the half-maximally effective values were calculated and the results are shown in Table V.
The compounds were dissolved in 25% (vols.) propylene glycol in water and injected i.p. into Balb/c mice (18-24 g). Dose-response measurements were obtained for 6 animals per dose or time point. Activity was monitored for 60 min using a Stoelting Electronic Activity Monitor (EAM) apparatus to assess the general motor activity of the animals.
The general locomotor activity of mice was measured in the Stolting activity monitor apparatus during 60 min after an intraperitoneal (i.p.) injection of a test compound.

[2] = Comparative brain/liver uptake of 14C-labeled compounds (Brain Penetration Index); conditions: for increase of 5-min BPI over GABA: 5 min after s.c. injection, relative to GABA; for time at which liver levels reach a maximum: s.c., mice
Experimental: The criterion used herein for measuring the extent to which a compound, from which the radical A is derived, crosses the blood-brain barrier is based on the uptake of this compound by the brain relative to its uptake by the liver. […] Measurements of the quantity of a compound present in brain and liver at 5 minutes after a subcutaneous (s.c.) injection were used to calculate a Brain Penetration Index (BPI), with the equation: [formula]
This is the amount of the compound present per gram of brain tissue as a percent of the amount per gram of liver tissue.
This procedure has the advantage that even for a sparingly soluble lipid ester, which tends to remain largely at the site of the injection and slowly diffuse into the circulation, its level in the liver will reflect the amount available rather than the initial dose injected.
The uptake of a ^14C-labeled compound into brain was compared with the uptake into liver of the same animal.
All determinations were carried out at 5 min after injection. The volumes of the injected doses into mice (body weight, 18-24 g) for the i.v., i.p., and s.c. doses were 0.15, 0.3 and 0.5 ml, respectively. […] Each tissue was homogenized in 8 ml of pyridine in a glass homogenizer.
Each labeled test compound was injected as a solution in 0.5 ml of saline (Compound 7) or in 25% propylene glycol in water (Compounds 1, 5, 6) subcutaneously (s.c.) into young adult Balb/c mice (18-24 g body weight). After 5 min (or longer) animals were sacrificed and the brain and liver removed, weighed and homogenized respectively in 8 ml and 10 ml of brain protein solvent (1 % (w/v) sodium dodecyl sulfate in 6 M urea and 19 mM EDTA, pH 7.4, 0.03 M phosphate). Aliquots (0.5 ml) of the homogenates were mixed with 10 ml of Aquasol 2 (New England Nuclear) and counted in a Beckman liquid scintillation counter. The total uptake of each compound per g brain and liver tissue was calculated. The proportion of uptake into brain as compared to liver (100%) of the same animal was designated as the Brain Penetration Index (BPI), expressed as a percentage typically at 5 min after injection.
Each of the ^14C-labeled Compounds 26, 28 and 30 were in 125 µl of the propylene glycol diluted with water up to 0.5 ml, and then injected subcutaneously into test Balb/c mice (20 ± 2 g weight). After 5 min the animals were sacrificed and the brain and liver were removed, weighed and homogenized in 8 ml and 10 ml of brain protein solvent, respectively. Next 0.5 ml aliquots were mixed with 10 ml of Aquasol 2 (New England Nuclear Corp., Boston, MA) and counted in a Beckman liquid scintillation counter. The data for the label in each tissue were used to calculate the total quantity of the compound present in brain and liver per gram of tissue. The ratio of the amount in brain as a percent of that present in liver at 5 min was taken as the Brain Penetration Index (BPI). Measurements at longer uptake times were also obtained to evaluate the accumulation of the compounds in the brain.

stereotypic behavior = experiment: Stereotypy behavior test (apomorphine or D-amphetamine induced); assay type: in vivo, mice
Experimental: Stereotypy tests were carried out by the method of A. Campbell et al, Neuropharmacol. 21, 953 (1982). Test mice were pretreated with Compound 26 (i.p. injection), then 15 min later apomorphine or D-amphetamine sulfate was injected i.p. The animals were observed every 10 min and rated for stereotypic behavior in comparison to controls.
Rating scale: • 0 = no stereotypy • 1 = discontinuous sniffing • 2 = continuous sniffing • 3 = continuous sniffing and jaw movements
The average total score per animal was obtained (maximum positive score = 18) over a 60-min period. A compound which depresses this score is considered to have properties of a neuroleptic with a potential for use as an antipsychotic agent. The results (see Table VIII) show a pronounced reduction of stereotypy, down to 24% of control.

[3] = system: bicuculline-induced epileptic seizures; experiment: Delay of onset of bicuculline-induced seizures (anticonvulsant activity); assay type: in vivo, mouse; conditions: for anticonvulsant properties: administered at doses of 30 mg/kg; for In Vivo Delay of Time of Onset of Bicuculline-induced seizures: graded 0-5
Experimental: In a second behavioral test, the ability of a substance to prevent or delay the onset of biculline-induced epileptic seizures was measured. […] At 24 hr after i.p. injection of the cholesteryl derivative at a dose of 30 mg/kg (64 pmol/kg), the onset of seizures was delayed by 30% after an acute i.p. injection of bicuculline at 0.3 mg/kg. […] The dexamethasone and butyl esters had no effect.
The compounds were also injected i.p. at 1, 6 and 24 hr before the administration of bicuculline (0.3 mg/kg) s.c. The latency to the onset of generalized tonic-clonic epileptic seizures and the protection against the lethality of bicuculline were measured and evaluated as a percent of the data for vehicle-injected controls. No significant changes were obtained at the 1 hr and 6 hr time points. At the 24 hr time, however, some compounds delayed while others accelerated the onset of seizures.
The effect of the compound to delay the onset of a bicuculline-induced seizures was evaluated.
The ability of a substance to delay the onset of bicuculline-induced epileptic seizures in the mouse was measured (Table X). […] At 24 hr after i.p. injection of the cholesteryl derivative (6) at a dose of 30 mg/kg (64 pmol/kg), the onset of seizures was delayed by 30% (as compared to saline controls) after an acute i.p. injection of bicuculline at 0.3 mg/kg. […] The dexamethasone and butyl esters had no effect on seizures in mice.

[4] = system: general motor activity of mice; experiment: General locomotor activity of mice (Stoelting electronic activity monitor); assay type: in vivo, Balb/c mice; conditions: Mus musculus, ip, 1 h; i.p.; 60-min general motor activity vs vehicle-injected and uninjected controls; 8 animals per dose
in vivo = conditions: mouse, sc
[5] = n-Octanol/water partition coefficient; assay type: physicochemical; conditions: 5 ml n-octanol / 5 ml water, stirring 18 hours; read-out: KOW: Octanol/Water Partition Coefficient (converted)
Experimental: A Partition Coefficient was defined by the equation: [formula] representing the amount of the ester taken up per ml of n-octanol relative to the amount of the same compound taken up per ml of water.
The n-octanol/water partition coefficients were obtained from measurements of the distribution of 1, 3, 5 and 6 pmol quantities of each ^14C-labeled compound into a mixture of 5 ml of n-octanol and 5 ml water. At each concentration, the amount of labeled compound in the aqueous and n-octanol phases was calculated from the amount of radioactive material present after stirring for 18 hours.

[6] = mouse, in vivo
[7] = 188 μmol/kg s.c., 5 min, Balb/c mice, mean ± S.E.M. (3 measurements)
[8] = 200 μmol/kg s.c., 60 min, Balb/c mice
[9] = 360 μmol/kg s.c., 180 min, Balb/c mice
[10] = Table IX summary, 5-min Brain Penetration Index
[11] = 20 μmol/kg s.c., 60 min, Balb/c mice
[12] = 60 μmol/kg s.c., 240 min, Balb/c mice
[13] = 67 μmol/kg s.c., 5 min, Balb/c mice, mean ± S.E.M. (3 measurements)
[14] = 170 μmol/kg s.c., 60 min, Balb/c mice

## CC/C=C\C/C=C\C/C=C\CCCCCCCC(=O)OCC(COC(=O)CCCN)OC(=O)CCCN (stereo not shown) [Compound 26, 1-linolenoyl-2,3-(gamma-aminobutyroyl)propane-1,2,3-triol]
[1]; Mus musculus, ip, 1 h, depression of locomotor activity at high doses, Figure 2
  ED50: 36 mg/kg
[1]
  In Vivo Inhibition of General Motor Activity: 4
  effect on motor activity at low doses: enhancing locomotor activity; also recorded: enhances motor activity
[1]; listed as monolinolenoyl-diGABA glyceride
  effect on motor activity at low doses: stimulating activity
[2]; [7]
  (BRAIN): 3.0 ± 0.2 nmol/g
  (LIVER): 3.3 ± 0.2 nmol/g
  BPI: 90±13%
[2]; [8]
  (BRAIN): 2.4 nmol/g
  (LIVER): 2.9 nmol/g
  BPI: 87%
[2]; [9]
  (BRAIN): 9.4 nmol/g
  (LIVER): 5.5 nmol/g
  BPI: 170%
[2]
  increase of 5-min BPI over GABA: 90 fold
  time at which liver levels reach a maximum: 45 to 60 min
[2]; [10]
  BPI: 90
Stereotypic behavior; 170 μmole/kg i.p. pretreatment, D-amphetamine sulfate 3 mg/kg, total score over 60 min (max 18), n = 4
  Stereotypy score induced by D-Amphetamine Sulfate: 3.3 ± 0.9
Stereotypic behavior; 170 μmole/kg i.p. pretreatment, apomorphine 1 mg/kg, total score over 60 min (max 18), n = 4
  Stereotypy score induced by Apomorphine: 8 ± 3.6
Stereotypic behavior; 170 μmole/kg, D-amphetamine sulfate 3 mg/kg
  Stereotypy (% of control), D-Amphetamine Sulfate: 24 % of control
Stereotypic behavior; 170 μmole/kg, apomorphine 1 mg/kg
  Stereotypy (% of control), Apomorphine: 52 % of control
[3]
  anticonvulsant properties: only weak anticonvulsant properties
  In Vivo Delay of Time of Onset of Bicuculline-induced seizures: 4
[4]
  ED50: 69 µmol/kg
In vivo; brain
  remaining at 4 h: 60%
In vivo; kidney
  remaining at 4 h: 10%
In vivo; liver
  remaining at 4 h: 30%
[5]
  logP at 18 h: 0.322
[6]
  level present in the brain at ED50: 2.1

## CC/C=C\C/C=C\C/C=C\CCCCCCCC(=O)OCC(COC(=O)CCCN)OC(=O)CCCCCCC/C=C\C/C=C\C/C=C\CC (stereo not shown) [Compound 28, 1,2-dilinolenoyl-3-(gamma-aminobutyroyl)propane-1,2,3-triol]
[1]
  In Vivo Inhibition of General Motor Activity: 4
[2]; [11]
  (BRAIN): 1.4 nmol/g
  (LIVER): 3.1 nmol/g
  BPI: 44%
[2]; [12]
  (BRAIN): 7.1 nmol/g
  (LIVER): 18.3 nmol/g
  BPI: 39%
[2]; [13]
  (BRAIN): 5.9 ± 0.4 nmol/g
  (LIVER): 4.7 ± 0.4 nmol/g
  BPI: 127±8.3%
[2]; [14]
  (BRAIN): 6.0 nmol/g
  (LIVER): 8.8 nmol/g
  BPI: 68%
[2]
  increase of 5-min BPI over GABA: 127 fold
  time at which liver levels reach a maximum: 45 to 60 min
[2]; [10]
  BPI: 127
[3]
  anticonvulsant properties: only weak anticonvulsant properties
  In Vivo Delay of Time of Onset of Bicuculline-induced seizures: 5
[4]
  ED50: 43 µmol/kg
[5]
  logP at 18 h: 0.82
[6]
  level present in the brain at ED50: 1.7
